US5614534A, “Derivatives of β, β-dimethyl-4-piperidineethanamine as inhibitors of the cholesterol biosynthesis” (Fournier Industrie et Sante, priority 1993, dated 1997)

The molecules below were run against T1, epoxysqualene cyclase (Rattus norvegicus, UniProt P48450) (assay: inhibition of epoxysqualene cyclase in rat hepatic microsomes (lanosterol formed from (R,S)-2,3-oxydosqualene)). Details: 25.10^-6 moles per liter of tested product; 150 μM (R,S)-2,3-oxydosqualene, 60 minutes at 37° C., pH=7.4; read-out: Inhibition percentage (of the quantity of lanosterol formed).
T1 construct: Rat hepatic microsomes were used as the source of the enzyme; from tissue; host or cells: liver microsomes of male Wistar rats
T1 sequence (P48450 1-733): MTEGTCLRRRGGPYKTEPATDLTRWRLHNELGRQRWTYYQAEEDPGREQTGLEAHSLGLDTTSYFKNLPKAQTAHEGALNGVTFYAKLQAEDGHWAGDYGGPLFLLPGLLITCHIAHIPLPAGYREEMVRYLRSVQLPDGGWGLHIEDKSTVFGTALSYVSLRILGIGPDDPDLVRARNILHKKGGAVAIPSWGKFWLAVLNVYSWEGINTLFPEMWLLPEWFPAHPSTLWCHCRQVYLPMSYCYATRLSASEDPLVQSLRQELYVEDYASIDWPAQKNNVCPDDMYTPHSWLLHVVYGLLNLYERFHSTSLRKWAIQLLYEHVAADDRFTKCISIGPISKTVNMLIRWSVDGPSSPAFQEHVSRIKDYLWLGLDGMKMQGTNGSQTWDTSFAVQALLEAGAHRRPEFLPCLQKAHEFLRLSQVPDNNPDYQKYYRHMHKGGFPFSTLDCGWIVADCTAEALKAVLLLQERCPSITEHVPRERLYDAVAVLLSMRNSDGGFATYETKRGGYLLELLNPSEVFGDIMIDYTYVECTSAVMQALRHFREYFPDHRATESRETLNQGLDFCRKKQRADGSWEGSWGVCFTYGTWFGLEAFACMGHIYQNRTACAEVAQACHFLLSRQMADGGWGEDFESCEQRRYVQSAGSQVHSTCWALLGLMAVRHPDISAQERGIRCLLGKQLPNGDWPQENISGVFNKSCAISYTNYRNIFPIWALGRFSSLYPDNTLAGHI
Assay type: biochemical, male Wistar rats
Experimental: The activity of the Compounds of the invention was evaluated by the observation of an inhibiting effect on epoxysqualene cyclase in the hepatic microsomes of male Wistar rats.
The method consisted of measuring the lanosterol formed from R,S-2,3-oxydosqualene by the microsomal enzyme. The enzyme was prepared using the method described by G. C. Ness (G. C. Ness et. al., Biochem. J., (1986), 233, 167-172).
Method for Measuring the Activity of Epoxysqualene Cyclase
Rat hepatic microsomes were used as the source of the enzyme. The method consisted in measuring the lanosterol formed from (R,S)-2,3-oxydosqualene.The (R,S)-2,3-oxydosqualene, the products to be tested and TWEEN® 80 in organic solution (2-propanone or sulphinyl bis-methane) (25 μl) were placed in test tubes and 400 μl of potassium buffer (0.1M, pH=7.4) was added. The reaction was initiated by adding 100 μl of the microsomes. In a final reaction volume of 525 μl, the mixture contained 150 μM of (R,S)-2,3-oxydosqualene, 0.1% of TWEEN® 80 (to dissolve the (R,S)-2,3-oxydosqualene) and 250 μg of microsomal proteins. The reaction time was 60 minutes at 37° C. The reaction was stopped by addition of 300 μl of methanolic potassium hydroxide (7%) and 20 μg of stigmasterol as an internal standard. After saponification at 80° C. for 30 minutes and stirring using a rotary stirrer, the sterols were extracted with 2 ml of hexane. The lanosterol formed was separated from the (R,S)-2,3-oxydosqualene, the membranal cholesterol and the stigmasterol by gas phase chromatography after transformation to the trimethylsilyl ethers. Derivatisation of the sterols was carried out at 60° C. for 30 minutes after addition of 25 μl of pyridine and 75 μl of the trimethylsilyl ester of 2,2,2-trifluoro-N-trimethylsily-ethanimidic acid containing 1% of trimethylchlorosilane ethers.
After evaporation, the trimethylsilyl ethers were taken up into solution in 100 μl of hexane. An aliquot of this solution (2 μl) was gas chromatographed on a OV1 capillary column (0.32 mm, 25 m) under the following conditions: injection temperature=270° C., furnace temperature=260° C., detector temperature=300° C.; the vector gas was nitrogen at a pressure of 7.10^4 Pa.
The potency of the molecules tested was expressed as the percentage inhibition of the quantity of lanosterol formed for a concentration of 25.10^-6 moles per liter of product tested.

SMILES	inhibition [%]
CCOC(=O)CCCN1CCC(C(C)(C)CN(C)C)CC1 [Example 25]	81
CN(C)CC(C)(C)C1CCN(CC(C)(C)Oc2ccc(Cl)cc2)CC1 [Example 30, 1-[2-(4-chlorophenoxy)-2,2-dimethyl-ethyl]-N,N,β,β-tetramethyl-4-piperidineethanamine]	92
CC(C)CCCC(=O)NCCCN1CCC(C(C)(C)CN(C)C)CC1 [Example 24, N-[[4-[2-(1-dimethylamino-2-methyl)propyl]-1-piperidinyl]-1-propyl]-5-methylhexanamide]	93
CC(C)Cc1ccc(C(C)CN2CCC(C(C)(C)CN(C)C)CC2)cc1 (stereo not drawn) [Example 32, 1-[2-[4-(2-methylpropyl)phenyl]-2-methylethyl]-N,N,β,β-tetramethyl-4-piperidineethanamine]	95
C=CCN1CCC(C(C)(C)CN(C)C)CC1 [Example 13, 1-(2-propenyl)-N,N,β,β-tetramethyl-4-piperidineethanamine]	64
CC(Cc1ccc(C(C)C)cc1)CN1CCC(C(C)(C)CN(C)C)CC1 (stereo not drawn) [Example 18, 1-[3-[4-(methylethyl)phenyl]-2-methyl-propyl]-N,N,β,β-tetramethyl-4-piperidineethanamine]	100
CN(C)CC(C)(C)C1CCN(CCCCCC(C)(C)C)CC1 [Example 17, 1-(6,6-dimethyl-heptyl)-N,N,β,β-tetramethyl-4-piperidineethanamine]	100
CN(C)CC(C)(C)C1CCN(C/C=C/C#CC(C)(C)C)CC1 [Example 16, (E)-1-(6,6-dimethyl-2-hepten-4-yn-1-yl)-N,N,β,β-tetramethyl-4-piperidineethanamine]	100
CN(C)CC(C)(C)C1CCN(C(=O)C(C)(C)Oc2ccc(Cl)cc2)CC1 [Example 29, 1-[2-(4-chlorophenoxy)-2,2-dimethyl-ethanoyl]-N,N,β,β-tetramethyl-4-piperidineethanamine]	95
CN(C)CC(C)(C)C1CCN(CC=Cc2ccccc2)CC1 [Example 31, 1-(3-phenylpropenyl)-N,N,β,β-tetramethyl-4-piperidineethanamine]	99
CN(C)CC(C)(C)C1CCN(C(=O)C=Cc2ccccc2)CC1 [Example 28, 1-(3-phenylpropenoyl)-N,N,β,β-tetramethyl-4-piperidineethanamine]	87
CC(C)=CCN1CCC(C(C)(C)CN(C)C)CC1 [Example 14, 1-(3,3-dimethylpropen-2-yl)-N,N,β,β-tetramethyl-4-piperidineethanamine]	48
CC(C)CCCNC(=O)CCCN1CCC(C(C)(C)CN(C)C)CC1 [Example 26, N-(4-methylpentyl)-4-[2-(1-dimethylamino-2-methyl)propyl]-1-piperidinebutanamide]	100

The next lines start with the values.

inhibition [%]	SMILES
100	CCCCCCCCCCCC(=O)N1CCC(C(C)(C)C[N+](C)(C)C)CC1 [Example 27, 1-[(1-undecyl)carbonyl]-N,N,N,β,β-pentamethyl-4-piperidinethanaminium Iodide]
66	CCCCCCCCCCCCN1CCC(C(C)(C)CN(C)C(C)=O)CC1 [Example 10, N-methyl-N-[2-methyl-2-[(1-dodecyl)-4-piperidinyl]propyl]acetamide]
63	CCCCCCCCCCCCN1CCC(C(C)(C)CN(CC)CC)CC1 [Example 4, 1-dodecyl-N,N-diethyl,β,β-dimethyl-4-piperidineethanamine]
96	CCCCCCCCCCCCN1CCC(C(C)(C)CNCC)CC1 [Example 9, 1-dodecyl-N-ethyl,β,β-dimethyl-4-piperidineethanamine]
58	CCCCCCCCCCCCN1CCC(C(C)(C)CNC(C)=O)CC1 [Example 11, N-[2-methyl-2-[(1-dodecyl)-4-piperidinyl]propyl]-N-acetamide]
75	CCCCCCCCCCCCN1CCC(C(C)(C)CN)CC1 [Example 1, 1-dodecyl-β,β-dimethyl-4-piperidineethanamine]
40	CCCCCCCCCCCCN1CCC(C(C)(C)CN2CCCCC2)CC1 [Example 15, 1-[[2-[4-(1-dodecylpiperidinyl)]-2-methyl]propyl]piperidine]
97	CCCCCCCCCCCCN1CCC(C(C)(C)CN(C)C)CC1 [Example 2, 1-dodecyl-N,N,β,β-tetramethyl-4-piperidineethanamine]
100	CN(C)CC(C)(C)C1CCN(CCCCCCCCCCCn2ccnc2)CC1 [Example 21, 1-[(11-imidazolyl)undecyl]-N,N,β,β-tetramethyl-4-piperidineethanamine]
100	CCCCCCCCCCC(=O)N1CCC(C(C)(C)CN(C)C)CC1 [Example 19, 1-undecanoyl-N,N,β,β-tetramethyl-4-piperidineethanamine]
100	CN(C)CC(C)(C)C1CCN(C(=O)CCCCCCCCCCn2ccnc2)CC1 [Example 20, 1-[(11-imidazolyl)undecanoyl]-N,N,β,β-tetramethyl-4-piperidineethanamine]
